Consider 88 compounds from PubChem BioAssay AID743394 (Broad Institute, 2014).

The source made the active and inactive calls.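 The calls were made as follows: active = 40% activation versus positive control reached by fitted dose-response curve at or below highest valid tested dose; inconclusive = poor fit quality, or flat fit with activation between 30% and 70%; inactive = the rest.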 Bounds are passed on as bounds.

The test system of the first test is 68-5-11 mouse fibroblast XiGFP reporter, % GFP-positive imaging, 3 d. The test can be described thus: inactive X chromosome reactivation in XiGFP fibroblasts, dose response, imaging, 68-5-11 mouse fibroblasts, GFP, cherry-pick (AID 743394).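 Also: sensitizer 5-aza-dC present in the wells at 0.5 mM final.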
Settings: not given
As for `CC1=CC(=Cc2sc3ccccc3[n+]2C)C=C(C)O1`, the AC40 was 7.67 µM.

Still in this test, the particulars now being: cells co-treated with 5-aza-dC sensitizer.
As for `Nc1c(C(=O)c2ccccc2)sc2nsc(SCCN3CCCC3)c12`, the AC40 is 8.3 µM.

For the compound `COc1ccc(-[n+]2c(C)cc(/C=C3\Sc4ccccc4N3C)cc2C)cc1`, the AC40 was 0.22 µM.

In the case of `CN1/C(=C/C=C(C#N)C#N)C(C)(C)c2ccccc21`, the AC40 was 11.3 µM.

As for `Nc1c(Br)cc2c3c(cccc13)-c1ccccc1-2`, the AC40 is 12.6 µM.

Consider `CC(=O)[C@@]1(O)Cc2c(O)c3c(c(O)c2[C@H](O[C@H]2C[C@H](N)[C@H](O)[C@H](C)O2)C1)C(=O)c1ccccc1C3=O`, for which the AC40 was 1.09 µM.

`Cc1cc(N/N=C/c2ccc([N+](=O)[O-])o2)nc2ccccc12`: the AC40 was 8.4 µM.

As for `CCOC(=O)C1=C(O)/C(=C/c2cc(OC)c(O)c(OC)c2)SC1=Nc1ccc(OC)cc1`, the AC40 is 18.3 µM.

For the compound `Cc1ccc(Cl)c2c(N=Nc3ccccc3)c(O)[nH]c12`, the AC40 was 7.83 µM.

As to `Cc1ccc(NC(=O)/C=C/c2ccc([N+](=O)[O-])s2)c(C)c1`, the AC40 was 1.68 µM.

Consider `N#C/C(=C/c1ccc(N2CCCCC2)o1)C(=O)NCCc1c[nH]c2ccccc12`, for which the AC40 is 4.77 µM.

Regarding `N#CC(C#N)=C1C=C2C=C(N3CCCCCC3)CCC2CC1` (stereo not drawn), the AC40 is 4 µM.

Regarding `CCOC(=O)Cn1c(=O)c(-c2cc(Br)ccc2N)nc2ccccc21`, the AC40 was 12.5 µM.

On to `CCCCNc1ccc2c3c(cccc13)C(=O)N(CCCC)C2=O`, for which the AC40 was 0.927 µM.

`Cn1cc(C2=C(c3ccc(Cl)cc3Cl)C(=O)NC2=O)c2ccccc21`: the AC40 is 6.16 µM.

Take `CC(C)(C)NC(=S)N/N=C\c1ccc(-c2ccc([N+](=O)[O-])cc2)o1`: the AC40 was 5.94 µM.

Consider `COc1cc2c3nnc(-c4ccc(F)cc4)c-3cn(Cc3cccc(C)c3)c2cc1OC`, for which the AC40 is 3.74 µM.

`CC(C)N1CCc2c(sc(NC(=O)c3ccc4ccccc4c3)c2C(N)=O)C1`: the AC40 is 13.3 µM.

As for `O=C(NC1CCCC1)c1cccc2c1C(=O)c1ccc(/C=C/c3ccccc3)cc1S2(=O)=O`, the AC40 is 5.54 µM.

`O=[N+]([O-])c1ccc(C2=NN(c3ccccc3)C(c3ccco3)C2)cc1` (stereo not drawn): the AC40 was 2.25 µM.

In the case of `N#Cc1c(-c2ccccc2F)cc(C2CC2)nc1SCC(=O)c1cccs1`, the AC40 is 7.48 µM.

For the compound `CC1=NN(c2nc(N)nc(/C(C#N)=C/c3ccc([N+](=O)[O-])o3)n2)C(C)(C)C1`, the AC40 is 2.18 µM.

Turning to `COc1ccc(NC(=O)C(C)N2C(=O)c3ccccc3C2=O)c(OC)c1` (stereo not drawn), the AC40 is 9.06 µM.

For `CC(=O)Oc1cccc(N2C(=O)c3cccc4c([N+](=O)[O-])ccc(c34)C2=O)c1`, the AC40 is 5.28 µM.

Turning to `Cc1cccc2cc3c(N)c(C(=O)N4CCc5ccccc54)sc3nc12`, the AC40 was 14.1 µM.

For the compound `CCN1/C(=C/c2ccc3cc(C)cc(C)c3[n+]2CC)Sc2cc(C)ccc21`, the AC40 is 0.507 µM.

As for `CCN1/C(=C\c2ccc3ccccc3[n+]2CC)Sc2cc(C)ccc21`, the AC40 is 0.668 µM.

As for `Cc1ccc(NC(=O)/C=C/c2ccc([N+](=O)[O-])s2)cc1`, the AC40 is 3.11 µM.

On to `CN(C)S(=O)(=O)c1ccc2c(c1)/C(=C/c1cc3c([nH]1)CCCC3)C(=O)N2`, for which the AC40 was 1.58 µM.

On to `CCCCN(C)C1=CC2=CC(=C(C#N)C#N)CCC2CC1` (stereo not drawn), for which the AC40 was 2.86 µM.

Turning to `O=C1c2cccc3c([N+](=O)[O-])ccc(c23)C(=O)N1Cc1cccnc1`, the AC40 was 10.1 µM.

For `CCOC(=O)Cn1c(=NC(=O)c2ccc([N+](=O)[O-])s2)sc2ccccc21`, the AC40 was 7.3 µM.

Regarding `O=c1oc2cc(O)ccc2cc1-c1nc2c(s1)CCc1ccccc1-2`, the AC40 was 2.79 µM.

With `CCN1CCc2c(sc(NC(=O)c3ccc(S(=O)(=O)N(CC)c4ccccc4)cc3)c2C(N)=O)C1`, the AC40 is > 19.5 µM (inactive).

For `Nc1c(C(=O)Nc2ccc(S(=O)(=O)N3CCCC3)cc2)sc2nc3cc4c(cc3cc12)CCC4`, the AC40 is 4.29 µM.

`CCc1cccc2cc3c(N)c(C(=O)Nc4ccc(S(=O)(=O)N5CCCC5)cc4)sc3nc12`: the AC40 was 4.01 µM.

On to `Cc1ccc(-c2cn3nc(-c4ccccc4)c(-c4ccccc4)nc3n2)cc1`, for which the AC40 is 7.27 µM.

Turning to `CN(C)CCCN1C(=O)c2cccc3c([N+](=O)[O-])ccc(c23)C1=O`, the AC40 is 6.06 µM.

As for `Cc1cc(C)c2cc3c(N)c(C(=O)Nc4c(C)[nH]c(=O)[nH]c4=O)sc3nc2c1`, the AC40 was 19.3 µM.

On to `COc1cc(/C=C/c2ccc3cccc(O)c3n2)c(Br)cc1O`, for which the AC40 is 14 µM.

With `COc1ccc(C(=O)c2sc3nc(C)cc(-c4cccs4)c3c2N)cc1`, the AC40 was 7.57 µM.

In the case of `Cc1ccc2c(c1)c(/C=C/c1cc[n+](C)cc1)c(C)n2C`, the AC40 was 2.65 µM.

With `CCOCCCNC(=O)/C(C#N)=C/c1ccc([N+](=O)[O-])o1`, the AC40 is > 19.5 µM (inactive).

Take `NC(=O)c1c(NC(=O)c2ccccc2)sc2c1CCN(Cc1ccccc1)C2`: the AC40 is 15.8 µM.

Consider `O=[N+]([O-])c1ccc(N2N=C(c3ccccc3)CC2c2ccccc2O)cc1` (stereo not drawn), for which the AC40 is 12.4 µM.

For `Cn1cc(/C=C/c2cc[n+](C)cc2)c2cc(Cl)ccc21`, the AC40 is > 19.5 µM (inactive).

`COc1ccc(Cn2cc3c(-c4ccc(F)cc4)nnc-3c3cc(OC)c(OC)cc32)cc1`: the AC40 was 4.05 µM.

Take `O=[N+]([O-])c1c(Nc2ccc(O)cc2)cc(Cl)c2nonc12`: the AC40 is 8.92 µM.

Consider `Cc1cc(C)cc(NC(=O)/C=C/c2ccc([N+](=O)[O-])s2)c1`, for which the AC40 is 1.7 µM.

With `F[B-](F)(F)c1cnc2ccccc2c1`, the AC40 was > 6.8 µM (inactive).

Take `CCN1/C(=C/C=C/c2oc3ccc(-c4ccccc4)cc3[n+]2CC)Oc2ccc(-c3ccccc3)cc21`: the AC40 was 0.00228 µM.

With `Nc1ccc2c3c(cccc13)-c1ccccc1-2`, the AC40 was 1.04 µM.

As to `N=c1ccn2c(n1)OC1C(O)C(CO)OC12` (stereo not drawn), the AC40 is 19.1 µM.

Consider `COc1ccc2c(n1)Sc1nc3ccccc3nc1N2`, for which the AC40 is 13.1 µM.

In the case of `O=S(=O)(Nc1cc(Sc2cccc3cccnc23)c(O)c2ccccc12)c1ccccc1`, the AC40 is > 19.5 µM (inactive).

As for `CCOC(=O)/C(=C/C=C1\Sc2cc(C)c(C)cc2N1CC)C(C)=O`, the AC40 is 16.9 µM.

`C#Cc1cc(N2CCN(C(=O)c3ccoc3)CC2)n2nc(-c3cccc(Cl)c3)cc2n1`: the AC40 is 8.99 µM.

Regarding `O=[N+]([O-])c1ccc(N/N=C/c2sc(N3CCOCC3)nc2-c2ccccc2)c(S(=O)(=O)Nc2ccc(Cl)cc2)c1`, the AC40 was 1.72 µM.

Take `CCOC(=O)/C=c1\s/c(=C\c2ccc3cc(OC)ccc3c2)c(=O)n1CC(=O)NCc1ccc2c(c1)OCO2`: the AC40 is 7.15 µM.

Take `N#C/C(=C\c1ccc(N2CCCCC2)o1)C(=O)Nc1cccc(Br)c1`: the AC40 is 0.406 µM.

As to `Cc1c2c(cc3c1[nH]c1ccccc13)C=NCC2`, the AC40 is 9.27 µM.

As to `COc1ccc2nc(C)cc(NCc3ccc(F)cc3)c2c1`, the AC40 is 4.9 µM.

Regarding `COc1ccccc1-[n+]1c(C)cc(/C=C2\Sc3ccccc3N2C)cc1C`, the AC40 is 0.249 µM.

As to `N#C/C(=C/c1ccc(-c2ccc(S(N)(=O)=O)cc2)o1)c1nc2ccccc2s1`, the AC40 is 1.17 µM.

With `Cc1[nH]c2ccccc2c1/C=N/Nc1ccc([N+](=O)[O-])cc1`, the AC40 is 9.23 µM.

Take `CC[n+]1c(/C=C/C=C/N(C(C)=O)c2ccccc2)sc2cc(OC)ccc21`: the AC40 was 1.16 µM.

For the compound `Cc1cccc2cc3c(N)c(C(=O)N4CCCc5ccccc54)sc3nc12`, the AC40 is 9.89 µM.

For the compound `CC(=NNc1nc2ccccc2o1)c1cc2ccccc2cn1`, the AC40 is 2.86 µM.

Consider `O=C(NCc1ccccc1)c1cccc2c1C(=O)c1ccc(/C=C/c3ccccc3)cc1S2(=O)=O`, for which the AC40 was 8.5 µM.

Turning to `C/C(=N\Nc1ncnc2sc(C)c(C)c12)c1ccccn1`, the AC40 was 0.784 µM.

With `COc1cc2c3nnc(-c4ccc(F)cc4)c-3cn(Cc3ccccc3)c2cc1OC`, the AC40 was 1.23 µM.

For `CN(C)CCN(Cc1ccc(Cl)cc1)c1ccccn1`, the AC40 was > 2.1 µM (inactive).

As for `CCN1/C(=C/c2ccc3cc(C)ccc3[n+]2CC)Sc2cc(C)c(C)cc21`, the AC40 is 1.29 µM.

For `Cc1ccc2[nH]c(C)c(/C=C/c3cc[n+](C)cc3)c2c1`, the AC40 is 8.58 µM.

`Cc1cccc(-c2cccc3[nH]c4c(c23)CCN2C(=O)[C@H]3[C@H](C)ON(C)[C@H]3C[C@@H]42)c1`: the AC40 was 10.8 µM.

Consider `COC1=CC(=O)c2c(ccc3ncnc(N)c23)C1=O`, for which the AC40 is 9.69 µM.

Turning to `CCC(CO)[n+]1c(C)cc(/C=C2\Sc3ccccc3N2Cc2ccccc2)cc1C` (stereo not drawn), the AC40 was 1.55 µM.

Turning to `Cc1ccccc1OCC(O)CNC1CCC(NCC(O)COc2ccccc2C)CC1` (stereo not drawn), the AC40 is > 19.5 µM (inactive).

On to `O=S(=O)(Nc1cc2nc3ccccc3nc2n1Cc1ccccc1)c1ccc(Cl)cc1`, for which the AC40 was > 19.5 µM (inactive).

Turning to `CCN(CC)c1ccc(/C=C/c2cc(-c3ccccc3)c3ccccc3n2)cc1`, the AC40 was 1.68 µM.

As to `CN1CCc2c(sc(NC(=O)c3ccc(S(=O)(=O)N4CCc5ccccc54)cc3)c2C(N)=O)C1`, the AC40 was 8.93 µM.

`COc1ccc(NC(=O)CCc2ccccc2)cc1S(=O)(=O)N1CCCCC1`: the AC40 is 17 µM.

As to `COc1ccc(C(=O)c2sc3nc(C)cc(-c4cccs4)c3c2N)cc1OC`, the AC40 was > 19.5 µM (inactive).

Turning to `CCCN1CCN(C(=O)C2CCN(c3nnc(C)c4c(C)n(-c5ccc(C)cc5)nc34)CC2)CC1`, the AC40 is 8.7 µM.

With `O=[N+]([O-])c1ccc(N/N=C/c2ccc[nH]2)cc1`, the AC40 is > 19.5 µM (inactive).

For the compound `C=CCN1C(=O)[C@@H]2Cc3c([nH]c4ccccc34)C(c3cc(OC)c(OC)c(OC)c3)N2C1=S` (stereo partly drawn), the AC40 is > 19.5 µM (inactive).

Regarding `COc1ccccc1N1N=C(c2ccc([N+](=O)[O-])cc2)CC1c1ccccc1` (stereo not drawn), the AC40 was 18.4 µM.

Consider `O=CNc1ccc2c3c(cccc13)-c1ccccc1-2`, for which the AC40 is 5.85 µM.
